Test systems include CAKI-1 renal; IGROV1 ovarian; RXF 393 renal; UO-31 renal; DU-145 prostate; SK-MEL-2 melanoma; RPMI-8226 leukemia; HOP-92 NSCLC; KM12 colon; MOLT-4 leukemia.
Test in all cases: inhibition of tumour cell growth, NCI panel, 48 h

Each structure is given as a SMILES string.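 All cell lines were grown in 96-well plates and treated with compound for 48 hours. GI50: concentration for 50% inhibition of growth. At the TGI there is no net growth.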

As to `COc1ccccc1C(=O)c1cnc(NC2CCN(S(C)(=O)=O)CC2)nc1N`, the GI50 was 5.84 µM in the assay on CAKI-1 renal; 8.05 µM in the assay on IGROV1 ovarian; 4.4 µM in the assay with RXF 393 renal; 7.43 µM with UO-31 renal; 6.51 µM in the assay with DU-145 prostate; 9.93 µM in the assay with SK-MEL-2 melanoma. In addition, the GI50 with RPMI-8226 leukemia is 6.57 µM; in the assay with HOP-92 NSCLC, 6.14 µM; with KM12 colon, 5.74 µM; in the assay with MOLT-4 leukemia it was 6.43 µM. For the same compound, the TGI in the assay on CAKI-1 renal was greater than 25 µM; in the assay with IGROV1 ovarian, greater than 25 µM; in the assay with RXF 393 renal, 10.5 µM; in the assay with UO-31 renal, greater than 25 µM; in the assay with DU-145 prostate, greater than 25 µM; with SK-MEL-2 melanoma, greater than 25 µM. In addition, the TGI with RPMI-8226 leukemia is greater than 25 µM; with HOP-92 NSCLC, greater than 22.9 µM; in the assay with KM12 colon, greater than 25 µM; in the assay on MOLT-4 leukemia it was greater than 25 µM.
As for `c1ccc2c(c1)nc(NCCN1CCNCC1)c1c3ccccc3[nH]c21`, the GI50 with CAKI-1 renal is 0.454 µM; in the assay on IGROV1 ovarian, 0.84 µM; in the assay with RXF 393 renal, 0.438 µM; in the assay with UO-31 renal, 0.567 µM; in the assay with DU-145 prostate, 0.227 µM; in the assay with SK-MEL-2 melanoma, 1.41 µM. Besides, the GI50 is 0.43 µM in the assay on HOP-92 NSCLC, 0.369 µM in the assay on KM12 colon and 0.0983 µM in the assay with MOLT-4 leukemia. Further, the TGI was 2.81 µM in the assay on CAKI-1 renal; 8.18 µM with IGROV1 ovarian; 2.04 µM in the assay with RXF 393 renal; 2.05 µM in the assay on UO-31 renal; 1.4 µM with DU-145 prostate; 2.89 µM in the assay on SK-MEL-2 melanoma. For the same compound, the TGI turned out to be 0.399 µM in the assay with RPMI-8226 leukemia, 2.62 µM in the assay with HOP-92 NSCLC, 2.56 µM in the assay on KM12 colon and 0.887 µM in the assay with MOLT-4 leukemia.
`COc1ccc2c(c1O)[C@@]13C=C(O)C(=O)C=C1[C@@H](C2)N(C)CC3`: the TGI in the assay on CAKI-1 renal, in the assay with IGROV1 ovarian, with RXF 393 renal, in the assay on UO-31 renal, with DU-145 prostate and in the assay with SK-MEL-2 melanoma was greater than 100 µM each time. Further, the TGI in the assay on RPMI-8226 leukemia, in the assay on HOP-92 NSCLC, with KM12 colon and in the assay with MOLT-4 leukemia was greater than 100 µM in each case.
Take `Cc1nnc([S-])s1.[Au+].c1ccc([PH+](c2ccccc2)c2ccccc2)cc1`: the GI50 with CAKI-1 renal was 1.64 µM; in the assay on IGROV1 ovarian it was 1.53 µM; with RXF 393 renal, 1.26 µM; in the assay with UO-31 renal, 1.64 µM; with DU-145 prostate, 1.68 µM; in the assay with SK-MEL-2 melanoma it was 1.64 µM. Moreover, the GI50 in the assay with RPMI-8226 leukemia was 1.8 µM; in the assay on HOP-92 NSCLC, 1.82 µM; in the assay on KM12 colon, 1.83 µM; in the assay on MOLT-4 leukemia, 2.34 µM. Moreover, the TGI with CAKI-1 renal was found to be 3 µM; in the assay on IGROV1 ovarian, 2.97 µM; with RXF 393 renal it was 2.53 µM; with UO-31 renal, 2.99 µM; with DU-145 prostate, 3.23 µM; in the assay with SK-MEL-2 melanoma it was 3.11 µM. In addition, the TGI in the assay with RPMI-8226 leukemia came out at 5.31 µM; in the assay on HOP-92 NSCLC it was 3.24 µM; in the assay on KM12 colon, 3.41 µM; in the assay on MOLT-4 leukemia, 6.76 µM.
Consider `Cc1cc(CS(=O)(=O)/C=C/c2ccccc2[N+](=O)[O-])c(CS(=O)(=O)/C=C/c2ccccc2[N+](=O)[O-])cc1C`, for which the TGI with CAKI-1 renal was greater than 100 µM; in the assay on IGROV1 ovarian, greater than 100 µM; with RXF 393 renal, 41.2 µM; with UO-31 renal, greater than 100 µM; in the assay with DU-145 prostate, greater than 100 µM; in the assay on SK-MEL-2 melanoma it was 36.5 µM. Also, the TGI in the assay with RPMI-8226 leukemia is greater than 86 µM; in the assay with HOP-92 NSCLC, 74.1 µM; with KM12 colon it was greater than 100 µM; in the assay with MOLT-4 leukemia it was greater than 100 µM.
Regarding `CCCC/C(=N\N=C(N)N)c1ccc(F)cc1`, the GI50 in the assay with CAKI-1 renal is 3.44 µM; with IGROV1 ovarian it was 5.06 µM; with RXF 393 renal it was 2.04 µM; in the assay with UO-31 renal it was 5.28 µM; in the assay on DU-145 prostate it was 3.89 µM; with SK-MEL-2 melanoma it was 3.09 µM. For the same compound, the GI50 with RPMI-8226 leukemia was 2.67 µM; in the assay with HOP-92 NSCLC, 2.13 µM; in the assay with KM12 colon, 2.79 µM; in the assay on MOLT-4 leukemia it was 3.35 µM. For the same compound, the TGI in the assay with CAKI-1 renal was determined as 15.1 µM; with IGROV1 ovarian it was 20.9 µM; with RXF 393 renal it was 5.81 µM; in the assay with UO-31 renal it was 20.1 µM; in the assay with DU-145 prostate, 14.7 µM; with SK-MEL-2 melanoma, 9.4 µM. The TGI in the assay on RPMI-8226 leukemia came to 17.4 µM; in the assay with HOP-92 NSCLC, 8.93 µM; with KM12 colon it was 14 µM; in the assay with MOLT-4 leukemia, 24.4 µM.
For the compound `CCN(CC)CCOc1ccc(/C=C2\C[C@H]3[C@@H]4CC=C5C[C@@H](OC(C)=O)CC[C@]5(C)[C@H]4CC[C@]3(C)[C@H]2OC(C)=O)cc1OC`, the GI50 is 9.21 µM with CAKI-1 renal; 14.9 µM in the assay on IGROV1 ovarian; 8.96 µM in the assay with RXF 393 renal; 11.6 µM in the assay with UO-31 renal; 5.84 µM in the assay with DU-145 prostate; 19.2 µM in the assay with SK-MEL-2 melanoma. The GI50 was 1.4 µM with RPMI-8226 leukemia, 5.95 µM with HOP-92 NSCLC, 9.65 µM with KM12 colon and 1.4 µM in the assay on MOLT-4 leukemia. The TGI in the assay with CAKI-1 renal is 18.6 µM; with IGROV1 ovarian, greater than 50 µM; with RXF 393 renal it was 20.7 µM; with UO-31 renal it was 27 µM; with DU-145 prostate, 12.2 µM; in the assay with SK-MEL-2 melanoma, greater than 50 µM. For the same compound, the TGI with RPMI-8226 leukemia is 24.2 µM; with HOP-92 NSCLC, 14.7 µM; in the assay on KM12 colon, 21.4 µM; in the assay with MOLT-4 leukemia it was 20.6 µM.
`COC(=O)c1cc(Nc2ccc(O)c3c2C(=O)c2c([N+](=O)[O-])ccc(O)c2C3=O)cc(C(=O)OC)c1`: the GI50 in the assay on CAKI-1 renal is 77.1 µM; with IGROV1 ovarian, 26.9 µM; with RXF 393 renal, 5.09 µM; with UO-31 renal it was 16.5 µM; with DU-145 prostate it was 1.75 µM; in the assay on SK-MEL-2 melanoma, 4.05 µM. Further, the GI50 was 3.84 µM in the assay on RPMI-8226 leukemia, 22 µM with HOP-92 NSCLC, 34.5 µM with KM12 colon and 6.37 µM in the assay on MOLT-4 leukemia. Moreover, the TGI was greater than 100 µM in the assay on CAKI-1 renal; greater than 100 µM in the assay with IGROV1 ovarian; greater than 100 µM with RXF 393 renal; greater than 100 µM with UO-31 renal; 3.51 µM in the assay with DU-145 prostate; greater than 100 µM in the assay on SK-MEL-2 melanoma. In addition, the TGI in the assay on RPMI-8226 leukemia, with HOP-92 NSCLC, in the assay with KM12 colon and in the assay with MOLT-4 leukemia was greater than 100 µM throughout.
For `CN1CCCC1c1cccnc1.O=C(O)c1ccccc1O.O=C([O-])c1ccccc1[OH2+].O=C([O-])c1ccccc1[OH2+].O=C([O-])c1ccccc1[OH2+].[Mn+2]` (stereo not drawn), the GI50 was greater than 100 µM in the assay with CAKI-1 renal; 97.7 µM in the assay with IGROV1 ovarian; greater than 100 µM in the assay with RXF 393 renal; greater than 100 µM in the assay with UO-31 renal; greater than 100 µM in the assay with DU-145 prostate; greater than 100 µM in the assay with SK-MEL-2 melanoma. Further, the GI50 with RPMI-8226 leukemia was 92.7 µM; in the assay with HOP-92 NSCLC it was greater than 100 µM; in the assay on KM12 colon, greater than 100 µM; with MOLT-4 leukemia, 19.9 µM. Moreover, the TGI in the assay on CAKI-1 renal, in the assay with IGROV1 ovarian, with RXF 393 renal, in the assay on UO-31 renal, in the assay on DU-145 prostate and with SK-MEL-2 melanoma was greater than 100 µM in each case. Further, the TGI in the assay on RPMI-8226 leukemia, in the assay with HOP-92 NSCLC, with KM12 colon and in the assay on MOLT-4 leukemia was greater than 100 µM each time.
As to `COc1cc[nH]c1/C=C1\C(=O)Nc2ccc(F)c(C#CC3(O)CCOCC3)c21`, the GI50 in the assay on CAKI-1 renal was 0.011 µM; in the assay on IGROV1 ovarian, 0.86 µM; in the assay with RXF 393 renal it was 0.305 µM; with UO-31 renal, 0.512 µM; in the assay on DU-145 prostate it was 0.806 µM; with SK-MEL-2 melanoma, 0.47 µM. In addition, the GI50 in the assay on RPMI-8226 leukemia was 0.76 µM; in the assay on HOP-92 NSCLC, 0.678 µM; in the assay on KM12 colon, 0.0104 µM; in the assay on MOLT-4 leukemia, 0.679 µM. In addition, the TGI in the assay with IGROV1 ovarian was greater than 7.18 µM; in the assay on RXF 393 renal, 1.01 µM; with UO-31 renal, greater than 6.99 µM; with DU-145 prostate it was greater than 25 µM; with SK-MEL-2 melanoma it was 2.14 µM; in the assay with RPMI-8226 leukemia, 1.76 µM. Further, the TGI was determined as 2.02 µM with HOP-92 NSCLC, 1.92 µM in the assay with KM12 colon and 2.92 µM in the assay with MOLT-4 leukemia.
For `COc1ccc(S(=O)(=O)N/N=C/C(=O)O)cc1`, the TGI in the assay on CAKI-1 renal was 1230 µM; with IGROV1 ovarian it was 1060 µM; in the assay with RXF 393 renal it was 1150 µM; in the assay on UO-31 renal it was greater than 1250 µM; with DU-145 prostate, 843 µM; in the assay on SK-MEL-2 melanoma, 826 µM. Moreover, the TGI in the assay with RPMI-8226 leukemia is 887 µM; in the assay on HOP-92 NSCLC, 1110 µM; in the assay with KM12 colon it was greater than 1170 µM; in the assay on MOLT-4 leukemia it was 694 µM.
As for `Cc1c(C(C)C)cc(OCCO)cc1C(C)C`, the TGI is greater than 100 µM with CAKI-1 renal; greater than 100 µM in the assay on IGROV1 ovarian; 36.2 µM in the assay on RXF 393 renal; greater than 100 µM in the assay on UO-31 renal; greater than 100 µM in the assay on DU-145 prostate; 57.3 µM in the assay on SK-MEL-2 melanoma. The TGI is 74.3 µM with RPMI-8226 leukemia, 57 µM in the assay with HOP-92 NSCLC, greater than 100 µM in the assay with KM12 colon and greater than 100 µM in the assay on MOLT-4 leukemia.
